# Experimental data taken from publication PMC2838726 (Molecular cancer therapeutics, 2010).
# Legend:
# [1] = tested on: RAF signal transduction capacity (MEK1/2 phosphorylation) in monocytes; assay: MEK1/2 pShift assay; format: cell-based, human; conditions: patient 5, one sample, after 7 days of sorafenib (25.9% before sorafenib)
# [2] = Sorafenib plasma pharmacokinetics in patients, with and without erlotinib; format: in vivo, human; conditions: for Cmax / Tmax / AUC: human, plasma, oral
# Safety, adverse events = format: in vivo, human; conditions: of 11 patients
# incurable solid tumor = assay: Tumor response; format: in vivo, human; conditions: per patient
# [3] = phase I trial of sorafenib plus gefitinib; cited from earlier work
# [4] = erlotinib 150 mg daily with sorafenib; cycle 1 days +15, 16, 22, 29
SMILES,additional monocytes shifted to the upper gate with IL3 versus vehicle (pShift) [1],"differences in PK variables of sorafenib in the presence or absence of erlotinib ([2]; day −2 vs day +15, Wilcoxon signed rank test)",Cmax [2],Tmax [2],AUC ([2]; 150 mg),AUC ([2]; 400 mg),Cmax ([2]; 400 mg bid),Tmax ([2]; 400 mg bid),"patients needing at least 1 dose delay (Safety, adverse events)","patients with doses delivered in full throughout the study (Safety, adverse events)","patients with doses reduced (Safety, adverse events)",TTP (incurable solid tumor),change of gefitinib Cmax and AUC in the presence of sorafenib [3],"mean trough erlotinib concentration (Css,min) [4]","patients with drug discontinued (Safety, adverse events)"
CNC(=O)c1cc(Oc2ccc(NC(=O)Nc3ccc(Cl)c(C(F)(F)F)c3)cc2)ccn1 [sorafenib],0.7%,No statistically significant differences,8600 ng/mL,4 h,53200 ng·h/mL,70900 ng·h/mL,8600 ng/mL,4.2 h,Nine,4 patients,7 patients,15 days,–,–,–
COc1cc2ncnc(Nc3ccc(F)c(Cl)c3)c2cc1OCCCN1CCOCC1 [gefitinib],–,–,–,–,–,–,–,–,–,–,–,–,decrease,–,–
C#Cc1cccc(Nc2ncnc3cc(OCCOC)c(OCCOC)cc23)c1 [erlotinib],–,–,–,–,–,–,–,–,7 patients,6 patients,2 patients,–,–,around 500 ng/ml,3 patients
